In patent US6630469B2, “5-HT7 receptor antagonists” (Bristol-Myers Squibb Company, priority 2000, dated 2003):
pIC50: −log10 of the molar value. Where “and” joins values, the source holds several entries; their conditions need not be identical. Equal values may be shown once.

Target: T1, human 5-HT7 receptor (Homo sapiens, UniProt P34969)
T1 construct: expressed in transfected cells; host or cells: CHO cells
Experiment: 5-HT7 Receptor Binding Assay
Settings: membranes of CHO cells expressing human 5-HT7 receptor; 1 nM 3H-5-carboxamidotryptamine; 25° C., 60 minutes
Method: 5-HT7 Receptor Binding Assay
Membranes are prepared for binding using the human 5-HT7 receptor expressed in CHO cells. Cells are collected and ruptured using a dounce homogenizer. The cells are spun at 18000× g for 10 minutes and the pellet is resuspended in assay buffer, frozen in liquid nitrogen and kept at −80° C. until the day of the assay.
A total of 30 ug protein is used per well. The assay is carried out in 96-deep-well plates. The assay buffer is 50 mM HEPES. The membrane preparation is incubated at 25° C. for 60 minutes with 0.1 nM to 1000 nM test compound and 1 nM ^3H-5-carboxamidotryptamine. 10 uM serotonin is used as blocking agent to determine non-specific binding. The reaction is terminated by the addition of 1 ml of ice cold 5OmM HEPES buffer and rapid filtration through a Brandel Cell Harvester using Whatman GF/B filters. The filter pads are counted in an LKB Trilux liquid scintillation counter. IC50 values are determined using non-linear regression by Exel-fit.

T1 sequence (P34969 whole entry): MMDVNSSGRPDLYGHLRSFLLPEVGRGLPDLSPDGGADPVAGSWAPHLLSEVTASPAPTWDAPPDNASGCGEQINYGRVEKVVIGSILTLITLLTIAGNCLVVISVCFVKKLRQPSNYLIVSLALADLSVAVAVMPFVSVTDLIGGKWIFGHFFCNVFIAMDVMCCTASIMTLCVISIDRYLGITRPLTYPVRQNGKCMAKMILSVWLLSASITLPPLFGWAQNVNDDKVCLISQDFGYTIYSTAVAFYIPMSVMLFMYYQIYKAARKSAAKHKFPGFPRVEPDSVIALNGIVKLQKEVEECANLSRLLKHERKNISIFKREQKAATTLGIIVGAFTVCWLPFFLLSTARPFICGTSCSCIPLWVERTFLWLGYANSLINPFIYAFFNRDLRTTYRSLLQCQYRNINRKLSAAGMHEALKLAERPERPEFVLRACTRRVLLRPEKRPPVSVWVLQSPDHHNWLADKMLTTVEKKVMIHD

Row | pIC50 | SMILES
1 | ≥ 7.30 | CC(Nc1nc(N)nc(NC[C@@H]2C[C@H]2c2ccncc2)n1)c1ccccc1 (mixture of isomers) [(±)-trans-N-(1-Phenyl-ethyl)-N′-(2-pyridin-4-yl-cyclopropylmethyl)-[1,3,5]triazine-2,4,6-triamine]
2 | ≥ 7.00 and < 7.30 | CC(Nc1nc(N)nc(NC[C@@H]2C[C@H]2c2ccccc2F)n1)c1ccccc1 (mixture of isomers) [(±)-trans-N-[2-(2-Fluoro-phenyl)-cyclopropylmethyl]-N′-(1-phenyl-ethyl)-[1,3,5]triazine-2,4,6-triamine]
3 | ≥ 7.00 and < 7.30 | CC(Nc1nc(N)nc(NC[C@@H]2C[C@H]2c2ccc(F)cc2)n1)c1ccccc1 (mixture of isomers) [(±)-trans-N-[2-(4-Fluoro-phenyl)-cyclopropylmethyl]-N′-(1-phenyl-ethyl)-[1,3,5]triazine-2,4,6-triamine]
4 | ≥ 7.30 | C[C@H](Nc1nc(N)nc(NC[C@H]2C[C@@H]2c2ccccc2F)n1)c1ccccc1 [(S,S)-trans-N-[2-(2-Fluoro-phenyl)-cyclopropylmethyl]-N′-(1-phenyl-ethyl)-[1,3,5]triazine-2,4,6-triamine]
5 | ≥ 7.30 | C[C@H](Nc1nc(N)nc(NC[C@H]2C[C@@H]2c2ccc(F)cc2)n1)c1ccccc1 [(S,S)-trans-N-[2-(4-Fluoro-phenyl)-cyclopropylmethyl]-N′-(1-phenyl-ethyl)-[1,3,5]triazine-2,4,6-triamine]
6 | 6.70 to 7.00 | CC(Nc1ccnc(NCCc2cccnc2)n1)c1ccccc1 (stereo not drawn) [Compound 1, N^4-(1-Phenylethyl)-N^2-[2-(3-pyridinyl)ethyl]pyrimidine-2,4-diamine]
7 | 6.70 to 7.00 | c1ccc(CCNc2nccc(NCc3ccco3)n2)cc1 [Compound 2, N^4-(2-Furanylmethyl)-N^2-(2-phenylethyl)pyrimidine-2,4-diamine]
8 | 6.70 to 7.00 | CC(Nc1ccnc(NCCc2c[nH]c3ccc(F)cc23)n1)c1ccccc1 (stereo not drawn) [Compound 3]
9 | 6.70 to 7.00 | c1ccc(OCCNc2nccc(NCc3ccco3)n2)cc1 [Compound 4, N^4-(2-Furanylmethyl)-N^2-(2-phenoxyethyl)pyrimidine-2,4-diamine]
10 | 7.00 to 7.29 | NC(=O)c1cccc(CNc2ccnc(NCCOc3ccccc3)n2)c1 [Compound 6, N^4-[3-(Aminocarbonyl)phenylmethyl]-N^2-(2-phenoxyethyl)pyrimidine-2,4-diamine]
11 | 7.00 to 7.29 | CC(Nc1nccc(NCCc2c[nH]c3ccccc23)n1)c1ccccc1 (stereo not drawn) [Compound 7, N^4-[2-(1H-Indol-3-yl)ethyl]-N^2-(1-phenylethyl)pyrimidine-2,4-diamine]
12 | 7.00 to 7.29 | CC(Nc1ccnc(NCCc2cccc(Br)c2)n1)c1ccccc1 (stereo not drawn) [Compound 8, N^2-[2-(3-Bromophenyl)ethyl]-N^4-(1-phenylethyl)pyrimidine-2,4-diamine]
13 | 7.00 to 7.29 | CC(Nc1ccnc(NCCc2ccc(Br)cc2)n1)c1ccccc1 (stereo not drawn) [Compound 9, N^2-[2-(4-Bromophenyl)ethyl]-N^4-(1-phenylethyl)pyrimidine-2,4-diamine]
14 | 7.00 to 7.29 | CC(Nc1ccnc(NC2Cc3ccccc3C2)n1)c1ccccc1 (stereo not drawn) [Compound 10, N^2-(Indan-2-yl)-N4-(1-phenylethyl)pyrimidine-2,4-diamine]
15 | 7.00 to 7.29 | c1ccc(CCNc2nccc(NCc3cccnc3)n2)cc1 [Compound 11, N^2-(2-Phenylethyl)-N^4-(3-pyridinylmethyl)pyrimidine-2,4-diamine]
16 | 7.00 to 7.29 | CC(Nc1ccnc(NCCc2ccccn2)n1)c1ccccc1 (stereo not drawn) [Compound 12, N^4-(1-Phenylethyl)-N^2-[2-(2-pyridinyl)ethyl]pyrimidine-2,4-diamine]
17 | ≥ 7.30 | C[C@H](Nc1ccnc(NCCOc2ccccc2)n1)c1ccc(Br)cc1 [Compound 13, N^4-[(1S)-1-(4-Bromophenyl)ethyl]-N^2-(2-phenoxyethyl)pyrimidine-2,4-diamine]
18 | ≥ 7.30 | CS(=O)(=O)Nc1cccc(CNc2ccnc(NCCOc3ccccc3)n2)c1 [Compound 14, N^4-{3-[(Methylsulfonyl)amino]phenylmethyl}-N^2-(2-phenoxyethyl)pyrimidine-2,4-diamine]
19 | ≥ 7.30 | c1ccc(OCCNc2nccc(NCc3cccc4ccccc34)n2)cc1 [Compound 16, N^4-(1-Napthalenylmethyl)-N^2-(2-phenoxyethyl)pyrimidine-2,4-diamine]
20 | ≥ 7.30 | C[C@H](Nc1ccnc(NCCOc2ccccc2)n1)c1cccc2ccccc12 [Compound 17, N^4-[(1S)-1-(1-Napthalenyl)ethyl]-N^2-(2-phenoxyethyl)pyrimidine-2,4-diamine]
21 | ≥ 7.30 | c1ccc(OCCNc2nccc(NCc3cccs3)n2)cc1 [Compound 18, N^2-(2-Phenoxyethyl)-N^4-(2-thienylmethyl)pyrimidine-2,4-diamine]

Row | pIC50 | SMILES
22 | ≥ 7.30 | c1ccc(OCCNc2nccc(NCc3ccncc3)n2)cc1 [Compound 19, N^2-(2-Phenoxyethyl)-N^4-(4-pyridinylmethyl)pyrimidine-2,4-diamine]
23 | ≥ 7.30 | c1ccc(OCCNc2nccc(NCc3cccnc3)n2)cc1 [Compound 20, N^2-(2-Phenoxyethyl)-N^4-(3-pyridinylmethyl)pyrimidine-2,4-diamine]
24 | ≥ 7.30 | CC(Nc1ccnc(NCCc2cccc(O)c2)n1)c1ccccc1 (stereo not drawn) [Compound 21, N^2-[2-(3-Hydroxyphenyl)ethyl]-N^4-(1-phenylethyl)pyrimidine-2,4-diamine]
25 | ≥ 7.30 | CC(Nc1ccnc(NCCc2cccc(C#N)c2)n1)c1ccccc1 (stereo not drawn) [Compound 22, N^2-[2-(3-Cyanophenyl)ethyl]-N^4-(1-phenylethyl)pyrimidine-2,4-diamine]
26 | ≥ 7.30 | CC(Nc1ccnc(NCCC2=CCCCC2)n1)c1ccccc1 (stereo not drawn) [Compound 23, N^2-[2-(1-Cyclohexenyl)ethyl]-N^4-(1-phenylethyl)pyrimidine-2,4-diamine]
27 | ≥ 7.30 | C[C@H](Nc1ccnc(NCCc2ccccc2)n1)c1cccc2ccccc12 [Compound 24, N^4-[(1S)-1-(1-Napthalenyl)ethyl]-N^2-(2-phenylethyl)pyrimidine-2,4-diamine]
28 | ≥ 7.30 | Ic1cccc(CNc2ccnc(NCCc3ccccc3)n2)c1 [Compound 25, N^4-(3-Iodophenylmethyl)-N^2-(2-phenylethyl)pyrimidine-2,4-diamine]
29 | ≥ 7.30 | Brc1cccc(CNc2ccnc(NCCc3ccccc3)n2)c1 [Compound 26, N^4-(3-Bromophenylmethyl)-N^2-(2-phenylethyl)pyrimidine-2,4-diamine]
30 | ≥ 7.30 | c1ccc(CCNc2nccc(NCc3cccs3)n2)cc1 [Compound 27, N^2-(2-Phenylethyl)-N^4-(2-thienylmethyl)pyrimidine-2,4-diamine]
31 | ≥ 7.30 | CC(Nc1ccnc(NCCn2ccc3ccccc32)n1)c1ccccc1 (stereo not drawn) [Compound 28, N^2-[2-(1H-Indol-1-yl)ethyl]-N^4-(1-phenylethyl)pyrimidine-2,4-diamine]
32 | ≥ 7.30 | CC(Nc1ccnc(NCCc2cccs2)n1)c1ccccc1 (stereo not drawn) [Compound 29, N^4-(1-Phenylethyl)-N^2-[2-(2-thienyl)ethyl]pyrimidine-2,4-diamine]
33 | ≥ 7.30 | CC(Nc1ccnc(N(C)CCc2c[nH]c3ccccc23)n1)c1ccccc1 (stereo not drawn) [Compound 30, N^2-[2(1H-Indol-3-yl)ethyl]-N^2-(methyl)-N^4-(1-phenylethyl)pyrimidine-2,4-diamine]
34 | ≥ 7.30 | CC(Nc1ccnc(NCCc2c[nH]c3cc(F)ccc23)n1)c1ccccc1 (stereo not drawn) [Compound 31, N^2-[2-(6-Fluoro-1H-indol-3-yl)ethyl]-N^4-(1-phenylethyl)pyrimidine-2,4-diamine]
35 | 6.70 to 7.00 | CC[C@H](Nc1nc(N)nc(NCCc2ccc(Cl)cc2)n1)c1ccccc1 [Compound 32, N^2-[2-(4-Chlorophenyl)ethyl]-N^4-[(1S)-1-phenylpropyl]-1,3,5-triazine-2,4,6-triamine]
36 | 6.70 to 7.00 | CC[C@H](Nc1nc(N)nc(NCCc2ccc(Cl)c(Cl)c2)n1)c1ccccc1 [Compound 33, N^2-[2-(3,4-Dichlorophenyl)ethyl]-N^4-[(1S)-1-phenylpropyl]-1,3,5-triazine-2,4,6-triamine]
37 | 6.70 to 7.00 | Cc1ccc(CCNc2nc(N)nc(N[C@@H](C)c3ccc(Br)cc3)n2)cc1 [Compound 34, N^2-[(1S)-1-(4-Bromophenyl)ethyl]-N^4-[2-(4-methylphenyl)ethyl]-1,3,5-triazine-2,4,6-triamine]
38 | 6.70 to 7.00 | CC[C@H](Nc1nc(N)nc(NCC(C)c2ccccc2)n1)c1ccccc1 (stereo partly drawn) [Compound 35, N^2-[(1S)-1-Phenylpropyl]-N^4-(2-phenylpropyl)-1,3,5-triazine-2,4,6-triamine]
39 | 6.70 to 7.00 | CC[C@H](Nc1nc(N)nc(NCCc2cccc(C(F)(F)F)c2)n1)c1ccccc1 [Compound 36, N^2-[(1S)-1-Phenylpropyl]-N^4-[2-(3-(trifluoromethyl)phenyl)ethyl]-1,3,5-triazine-2,4,6-triamine]
40 | 6.70 to 7.00 | CC(CNc1nc(N)nc(N[C@@H](C)c2ccccc2)n1)c1ccccc1 (stereo partly drawn) [Compound 37, N^2-[(1S)-1-Phenylethyl]-N^4-(2-phenylpropyl)-1,3,5-triazine-2,4,6-triamine]
41 | 6.70 to 7.00 | C[C@H](Nc1nc(N)nc(NCCNc2ccccc2)n1)c1cccc2ccccc12 [Compound 38, N^2-[(1S)-1-(1-Napthalenyl)ethyl]-N^4-[2-(phenylamino)ethyl]-1,3,5-triazine-2,4,6-triamine]
42 | 6.70 to 7.00 | C[C@H](Nc1nc(N)nc(NCCc2ccc(Br)cc2)n1)c1ccc([N+](=O)[O-])cc1 [Compound 39, N^2-[2-(4-Bromophenyl)ethyl]-N^4-[(1S)-1-(4-nitrophenyl)ethyl]-1,3,5-triazine-2,4,6-triamine]
